From patent publication US20150158914A1, “PEPTIDES, CONSTRUCTS AND USES THEREFOR” (priority 2010, published 2015)
“Also recorded” adds a separate entry of the source. Ends that are not written are not given here. * marks the point of attachment. FITC = O=C1OC2(c3ccc(O)cc3Oc3cc(O)ccc32)c2ccc(NC(=S)*)cc21

Tests used:
X-protein = test: Non-reducing SDS-PAGE/Western blot of X-protein tertiary structure in HepG2 transfectants; assay type: cell-based, hepatitis B virus; conditions: peptide added thrice over 48 h, non-reducing conditions
Procedure: The inventors investigated how the oligomerization domain peptide (aa 16-35) antagonized X-protein-mediated function. The aim was to determine whether the peptide disrupted the tertiary structure of the X-protein. HepG2 cells were transfected with either the pCDNA3.1-HBX, pCDNA3-HBX Myc or pCDNA3-GFP plasmids and were treated thrice over 48 h with the oligomerization domain peptide (aa 16-35). Control transfectants were not treated with peptide. The nuclear subfraction was resolved by SDS-PAGE using non-reducing loading buffer to keep the disulphide bonding of the X-protein intact. The proteins were transferred onto a PVDF membrane, and probed with a mouse antihuman X-protein primary antibody, followed by a secondary goat anti-mouse HRP-conjugated antibody. […] Transfectants not treated with peptide expressed higher order forms of the X-protein, including the dimeric form at ˜34 kDa, and apparently even higher order structures (FIG. 11). In contrast, cells transfected with pCDNA3.1-HBX and pCDNA3-HBX Myc and treated with the oligomerization domain peptide expressed monomeric forms at ˜17 kDa and ˜21 kDa, respectively.

[1] = test system: Rin-m5f pancreatic islet tumor cell line; test: Peptide uptake by other cell lines; assay type: cell-based, rat; conditions: 3 h
Procedure: (§1) The cells were then incubated overnight at 37° and 5% CO2, and then washed thrice with media without FCS. The X-protein peptide in 250 μl of appropriate media without FCS was added to the cells at a final concentration of 10 μM, and the slides incubated for 3 h at 37° C. and 5% CO2. The cells were washed with PBS, fixed with 4% formaldahyde in PBS for 30 min, and washed thrice with PBS. […] The slides were dried overnight in the dark, and examined by microscopy by using a Nikon E600 fluorescent microscope. Photos were taken using Nikon ACT-1 software. For further examination, slides were then examined by confocal microscopy using a Leica TCS-SP2 confocal microscope.
(§2) The X-protein cell-permeable peptide aa 16-22 was tested for its ability to be taken up by other mammalian cell lines including the human C32 melanoma, DU145 prostate carcinoma, TK1 T cell lymphoma, H441 lung carcinoma, Rin-m5f rat pancreatic islet tumor and Cos-1/7 green monkey kidney cell lines. TK1 cells are suspension cells whereas all other cell lines are adherent cells. Cells were incubated with the fluoresceinated X-protein cell-permeable peptide 16-22 for 3 h in medium appropriate for that cell line in the absence of FCS. The HepG2 cell line was used as a positive control. The X-protein peptide was able enter all adherent cell lines regardless of type or source of the cell (FIGS. 22 and 23).

[2] = test system: nonadherent cell line TK1; test: Peptide uptake by suspension cell line; assay type: cell-based; conditions: TK1 in suspension, 3 h; listed as X-protein cell-permeable peptide aa 16-22
Procedure: as §1, §2

[3] = test system: nonadherent peripheral blood mononuclear cells; test: Peptide uptake by nonadherent buffy coat cells; assay type: cell-based, human; conditions: 3 h, RPMI without FCS
Procedure: (§3) To determine whether this was a general feature of nonadherent cells, the ability of the peptide to enter non-adherent human peripheral blood mononuclear cells was examined. A buffy coat containing monocytes, lymphocytes, and platelets was isolated from 10 ml of human blood and incubated in 8-chamber slides for 3 h with the cell-permeable peptide aa 16-22 in RPMI medium without FCS.

[4] = test system: adherent monocytes and platelets; test: Peptide uptake by adherent buffy coat cells; assay type: cell-based, human; conditions: 3 h, cells adhered to 8-chamber slides
Procedure: as §3

[5] = test system: nonadherent erythrocytes and platelets; test: Peptide uptake in whole blood; assay type: cell-based; conditions: whole blood in 10 mM citrate buffer, 3 h
Procedure: Whole blood was incubated with the fluoresceinated X-protein cell-permeable peptide aa 16-22 for 3 h to determine whether erythrocytes and platelets are able to take up the peptide. Blood was collected from a finger prick and suspended in 10 mM citrate buffer to prevent the blood clotting. After incubation with peptide the cells were washed in PBS and a blood smear prepared on a glass slide. The cells were stained with Diff-Quik.

adherent TK1 T cells = test: Peptide uptake by attached TK1 cells; assay type: cell-based
Source text: As above, the lymphocytic cell line TK1 in suspension was not able to take up the X-protein cell-permeable peptide aa 16-22. Once activated, circulating lymphocytes have the ability to adhere to the vascular endothelium, to attach to antigen presenting cells, and to attach to and move through the extracellular matrix. The fact that adherent monocytes took up the peptide raised the possibility that TK1 T cells attached to a surface might also be able to take up the X-protein cell permeable peptide aa 16-22. TK1 cells were adhered to MAdCAM-1-coated glass slides or left to bind directly to the surface of the glass slides. Cells attached to the slides were incubated with the X-protein cell-permeable peptide aa 16-22 for 3 h in RPMI without FCS. Virtually all TK1 cells attached via α4β7 to MAdCAM-1 took up the peptide, whereas only 50 to 60% of cells directly attached to the glass slide took up the peptide (FIG. 27).

[6] = listed as X-protein cell-permeable peptide 16-22
[7] = listed as cell-permeable peptide aa 16-22

Substance | overall level of the X-protein (X-protein) | tertiary structure of the X-protein (dimeric and higher order forms) (X-protein; listed as oligomerization domain peptide (aa 16-35)) | uptake of the peptide, cells positive ([1]; Rin-m5f, no FCS) | entry into cells ([1]; Rinm5f) | entry into cells [2] | uptake by nonadherent buffy coat cells [3, 6] | uptake by nonadherent buffy coat cells [3, 7] | uptake by adherent monocytes and platelets [4, 6] | uptake by adherent monocytes and platelets [4, 7] | uptake by erythrocytes and platelets [5, 6] | uptake by erythrocytes and platelets ([5]; listed as X-protein cell-permeable peptide aa 16-22) | uptake by adherent TK1 T cells (adherent TK1 T cells; adhered to MAdCAM-1-coated glass slides or to the slides directly) | TK1 cells that took up the peptide (adherent TK1 T cells; attached via α4β7 to MAdCAM-1, 3 h) | TK1 cells that took up the peptide (adherent TK1 T cells; directly attached to the glass slide, 3 h)
FITC-Acp-LCLRPVGAESRGRPVSGPFG [Peptide 16-35] | did not decrease the overall level of the X-protein | Disruption of the tertiary structure of the X-protein; also recorded: disrupts the tertiary structure of the X-protein, preventing dimerization and the formation of higher order structures |  |  |  |  |  |  |  |  |  |  |  | 
FITC-LCLRPVG ({FITC}-LCLRPVG) [Peptide 16-22] |  |  | 60 to 70 % cells positive | taken up less efficiently | completely unable to enter | unable to enter | did not take up the peptide | able to enter adherent monocytes, and potentially adherent platelets | had taken up the peptide | does not enter | None of the cell types present | took up | Virtually all | 50 to 60 % of cells
